1 compound from patent US9663463B2, “3-azabicyclo[3.1.0]hexane derivative and use thereof for medical purpose” (priority 2013, dated 2017) can be followed below.

The test system of data set [1] is pruritus mice model to which morphine had been intracisternally administered. Briefly: Anti-pruritic effect in pruritus mice model to which morphine had been intracisternally administered. Format: in vivo. Particulars: oral administration, male ICR mice, inhibition of morphine-induced scratching behavior. Here is the method: As experimental animals, male ICR (Cr1j: CD1 (ICR): Charles River Japan) mice were used at 5 to 6-week old. The mice were placed in an acrylic cage (colorless and transparent, W 13.5 cm×D 9.5 cm×H 40 cm) for observing scratching behavior for 30 minutes or more to thereby allow the mice to get used to the observation environment, and the test substance solutions were forcedly orally administered to the test substance-administered groups. In addition, an administration vehicle was forcedly orally administered to the normal control group and the pathological control group. A necessary amount of the test substance was weighed and formed into a micropowder in an agate mortar, an administration vehicle, a 0.5 w/v % methyl cellulose 400 solution (Wako Pure Chemical Industries Ltd.) was added little by little, and preparation was performed by suspending or dissolving so as to give an intended concentration (from 0.025 to 3 mg/ml). The test doses were preset to suitable doses in the range in which the maximum dose is 30 mg/10 ml/kg.
Based on 30 minutes after the forced oral administration of the test substance as a criterion, the time for the intracisternal administration of morphine was suitably set up to 120 minutes after at the maximum, with consideration for the times of maximum plasma concentration of the respective test substances, in the case when the in vivo pharmacokinetics of the test substance had been confirmed in advance. Furthermore, saline was intracisternally administered to the normal control group, and the above-mentioned morphine solution was intracisternally administered to the pathogenic control group, so as to be 5 μL/site at the same time as that of the test substance group after the forced oral administration of the administration vehicle in either case.
The behavior of each mouse within 60 minutes from the intracisternal administration of the morphine solution or saline was recorded by a digital video camera that was installed immediately above the acrylic cage, the images were stored in a digital video recorder, and the number of frequency of the scratching behavior was measured. The number of frequency of the scratching behavior was measured with deeming a behavior in which the mouse raised its hindlimb, scratched the facial surface and the peripheral sites thereof, and got the hindlimb off from the body within 30 minutes from after the intracisternal administration of the morphine or saline as one time.
The anti-pruritic effect of each test substance was obtained as follows. As an inhibition ratio against the number of frequency of the scratching behavior on the pathological control group, the inhibition ratio (%) of the respective individuals and the average value thereof were calculated from the following formula, and an ED50 value was calculated based on the obtained inhibition ratio. Inhibition ratio of each individual (%)={1−(A−Vehicle)/(Morphine−Vehicle)}×100 Morphine: the average of the scratching number of the pathological control group Vehicle: the average of the scratching number of the normal control group A: the scratching number of each individual in the test substance-administered group

The nature of data set [2]: Plasma concentration of test substance at ED50 value (mice, LC/MS/MS). Format: in vivo. As to conditions: at the ED50 value, at time of morphine administration, oral, linear regression from two doses. The procedure: The concentration of the test substances in blood plasma was confirmed by using mice of the same week-old for the same dose as that used in the evaluation of the anti-pruritic effect. The test substance was administered by forced oral administration of an administration vehicle prepared in a similar manner to that in the evaluation of the anti-pruritic effect under a non-fasting condition. The blood samples were collected from the orbital venous plexus, within from 15 minutes after the administration of the test substance to after 180 minutes at the maximum, for multiple times including the timing at which the morphine solution was intracisternally administered, under inhalation anesthesia with diethyl ether or isoflurane using a heparin-treated hematocrit tubes. The collected blood samples were immediately ice-cooled and centrifuged at 1,800 g for 15 minutes at 4° C., and the plasma fractions were transferred and stored under freezing at −30° C. or less until measurement.
The concentrations of the test substances in plasma were measured using LC/MS/MS. Furthermore, as the measurement samples for LC/MS/MS, the supernatants obtained by adding an internal standard substance and acetonitrile in an amount within a range from 5-fold to 10-fold of the amount of the plasma to the collected plasma samples, and removing proteins therefrom, was used.

Data set [3] deals with human μ-opioid receptor (Homo sapiens (Human), UniProt P35372). As to the kind of experiment: Antagonist activity test using [35S]-GTPγS bond as index using human μ-opioid receptor-expressing cell membrane. Format: biochemical. As to conditions: inhibition of DAMGO (10 nM)-stimulated [35S]-GTPγS binding, human μ-opioid receptor membrane; read-out: IC50. Here is the method:
Cells in which a human μ-opioid receptor had been highly expressed was purchased from ChanTest (Cleveland). The cells were cultured in a carbon dioxide gas culturing apparatus by using a Ham's F12 culture medium (Invitrogen) containing 10% of fetal bovine blood serum, 1% of non-essential amino acids, 0.4 mg/ml of G418, 100 U/ml of penicillin and 100 μg/ml of streptomycin. The cultured cells were suspended by using a 0.25% trypsin 1 mM EDTA solution, the suspension was collected by using phosphate-buffered saline and centrifuged at 4° C. and 1,000 rpm for 10 minute to remove the supernatant, whereby a cell mass was obtained. […] Similar homogenization and centrifugation operations were repeated on the sediment, a homogenized buffer was added again to the obtained sediment, and the resultant was similarly homogenized to give a membrane fraction solution. The obtained membrane fraction solution was dispensed, rapidly frozen and stored under freezing at −70° C. or less until use. Furthermore, the protein concentration of the obtained membrane fraction solution was measured by using a BCA protein Assay Kit (Cat. 23227, Pierce) according to the protocol attached to the kit.
The cell membrane fraction solution in which the human μ-opioid receptor had expressed, which had been stored under freezing, was melted, a GTP assay buffer (100 mM NaCl, 5 mM MgCl2, 1 mM EDTA-containing 50 mM Hepes (pH 7.4)) was added thereto, and the resultant was homogenized repeatedly twice by using a Polytron homogenizer (SMT Multi Disperser PB95) under ice cooling at 12,000 rpm for 20 seconds to give a homogeneous solution, and the homogeneous solution was diluted to 0.036 mg/ml with a GTP assay buffer containing 18.2 μM of GDP (final concentration: […]). The dilution was incubated for 15 minutes or more under ice cooling until the reaction was initiated. […] [^35S]-GTPγS (NEG030X, Perkinelmer) was diluted with a GTP assay buffer so as to be 0.616 nM (final concentration: 0.08 nM). The resultant was diluted with a GTP assay buffer so as to be 200 nM (final concentration: 10 nM) by using [D-Ala^2, N-Me-Phe^4, Gly^5-ol]-enkephalinacetate (DAMGO, Sigma) as a μ-opioid receptor agonist. WGA Coated PVT SPA Beads (RPNQ0001, Perkinelmer) were added so as to be 20 mg/ml with a GTP assay buffer, and the resultant was suspended (final concentration: 1 mg/well). 4 μL/well of a test substance solution, 10 μL/well of a DAMGO solution, 26 μL/well of a [^35S]-GTPγS solution, […] of a suspension liquid of WGA Coated PVT SPA Beads, and 110 μL/well of the membrane fraction solution were added to a 96 well plate (1450-401, Perkinelmer), the top part of the plate was sealed, and a reaction was performed at 30° C. for 60 minutes under stirring with a plate shaker. For each measurement plate, a well to which DMSO had been added instead of the test substance, and a well to which DMSO had been added instead of the test substance and a GTP assay buffer had been added instead of the DAMGO solution were prepared. Furthermore, after the reaction was completed, the reactant was centrifuged at room temperature and 1,000 rpm for 3 minutes, and the radioactivity was measured by a microplate scintillation luminescence counter (Perkinelmer).
The IC50 value of the test substance was calculated by using Graphpad Prism 5.
In general terms: GTPγS resists hydrolysis and so accumulates on activated G proteins.

Data set [4] relates to Mice serum protein. As to the kind of experiment: in vitro. As to conditions: murine serum, equilibrium dialysis, 37° C., 5 to 6 hours. The class given is in vitro ADME. Here is the method: The protein binding rate was determined by equilibrium dialysis method using the RED Device (8K MWCO, Rapid Equilibrium Dialysis Device, Thermo Scientific). The test substances that had been dissolved in DMSO were added to the serum that was collected from Crl: CD-1 (ICR) mice fasted overnight, so that the final concentration of DMSO became 1% (v/v). The serum to which the test substance had been added was added to the inner side of the dialysis membrane of the RED Device, and PBS (phosphate buffer saline, pH 7.4) containing 0.01% (v/v) Tween 80 was added to the outside in accordance with the method for using the RED Device and incubated at 37° C. for 5 to 6 hours with ellipsoidal shaking at 100 rpm so that the concentration of the unbound test substance in the serum and the concentration of the test substance in the PBS reached equilibrium. After the incubation was completed, the respective solutions were collected and stored under freezing at −60° C. or less as measurement samples. The proteins were removed from the measurement sample by adding acetonitrile in an amount of 5-fold or more of the amount of the internal standard substance and the serum sample, and the supernatants were measured by LC/MS/MS (liquid chromatograph—triple quadrupole mass spectrometer). The serum samples were measured after suitably diluting with distilled water as necessary.
A: the concentration of the test substance in the PBS sample
B: the concentration of the test substance in the serum sample
Background: Equilibrium dialysis compares concentrations on both sides of a semipermeable membrane.

In general, ED50 refers to the dose that gives a 50% effect, or the effect in half of the subjects. As a reminder, the IC50 is the concentration at which inhibition is half-maximal. `CC[C@]1(c2cccc(NS(C)(=O)=O)c2)[C@@H]2CN(CC3(O)Cc4ccccc4C3)C[C@@H]21.CS(=O)(=O)O` [Comparative compound 1, N-(3-{(1R,5S,6r)-6-ethyl-3-[(2-hydroxy-2,3-dihydro-1H-inden-2-yl)methyl]-3-azabicyclo[3.1.0]hexan-6-yl}phenyl)methanesulfonamide methanesulfonate, reference compound] registered an ED50 in data set [1] of 2.6 mg/kg. Also, the “Plasma concentration of test substance” value in data set [2] stood at 157 nM. Besides, the IC50 in data set [3] was found to be 1.3 nM. The compound further showed a Protein binding rate in data set [4] of 93.2%.
